Results: PubChem BioAssay (NCI)
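Method: 48-hour compound exposure of cells in 96-well plates, five concentrations, linear interpolation of endpoints. TGI: concentration producing complete growth inhibition.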

Legend:
Assay in all cases: inhibition of tumour cell growth, NCI panel, 48 h
[1] = test system: OVCAR-8 ovarian
[2] = test system: UACC-257 melanoma
[3] = test system: SF-295 CNS
[4] = test system: OVCAR-5 ovarian
[5] = test system: HL-60(TB) leukemia
[6] = test system: K-562 leukemia
[7] = test system: HCC-2998 colon
[8] = test system: LOX IMVI melanoma
[9] = test system: NCI-H522 lung
[10] = test system: OVCAR-4 ovarian
[11] = test system: COLO 205 colon
[12] = test system: UACC-62 melanoma
[13] = test system: NCI/ADR-RES ovarian
[14] = test system: MALME-3M melanoma
[15] = test system: SK-MEL-5 melanoma
[16] = test system: SNB-75 CNS
[17] = test system: IGROV1 ovarian
[18] = test system: EKVX NSCLC
[19] = test system: HCT-116 colon
[20] = test system: HOP-62 NSCLC

Row | SMILES | TGI [1] [µM] | TGI [2] [µM] | TGI [3] [µM] | TGI [4] [µM] | TGI [5] [µM] | TGI [6] [µM] | TGI [7] [µM] | TGI [8] [µM] | TGI [9] [µM] | TGI [10] [µM] | TGI [11] [µM] | TGI [12] [µM] | TGI [13] [µM] | TGI [14] [µM] | TGI [15] [µM] | TGI [16] [µM] | TGI [17] [µM] | TGI [18] [µM] | TGI [19] [µM] | TGI [20] [µM]
1 | CC1C(=O)C(C)C(c2cccs2)N(N=O)C1c1cccs1 (centres undefined) | > 100 | > 100 | > 100 | > 100 | > 100 | > 100 | > 100 | > 100 | > 100 | > 100 | > 100 | > 100 | > 100 | > 19.7 | > 100 | > 93 | > 100 | > 100 | > 100 | > 100
2 | CCCCC(NC(=O)CC)C(=O)O (centres undefined) | > 100 | > 100 | > 100 | > 100 | > 100 | > 100 | > 31.6 | > 100 | > 100 | > 100 | > 100 | > 100 | > 100 | > 100 | > 100 | > 100 | > 100 | > 100 | > 100 | > 100
3 | CN1C[C@H]2[C@@H](C1=O)[C@H](c1ccc([N+](=O)[O-])cc1)ON2C | > 100 | > 100 | > 100 | > 100 | > 100 | > 100 | > 100 | > 100 | > 100 | > 100 | > 100 | – | > 100 | – | > 100 | – | > 100 | – | > 100 | > 100
4 | COc1cc(C2C(Cl)C(=O)N2NC(=O)c2ccc(NC(C)=O)cc2)cc(Br)c1O (centres undefined) | > 100 | > 100 | > 100 | > 100 | > 100 | > 100 | > 100 | – | > 100 | – | > 100 | > 100 | – | > 100 | > 100 | > 100 | > 100 | – | > 100 | > 100
5 | COc1ccc2c(C)cc(N/N=C/c3sccc3C)nc2c1 | 30.3 | 22.4 | 28.4 | 28.1 | > 100 | – | 25.7 | 21.5 | 21.9 | > 100 | 17.9 | 34.9 | 26.2 | 20.8 | 18.9 | 26.1 | 27.4 | – | 16.1 | 28.4
6 | COc1cc(C2c3cc4c(cc3OC3(O)COC(=O)C23)OCO4)cc(OC)c1OC (centres undefined) | > 100 | > 100 | 74.5 | > 100 | 97.7 | > 100 | > 100 | > 100 | 54.1 | > 100 | – | > 100 | – | > 100 | – | 54.5 | > 100 | > 100 | > 100 | > 100
7 | Nc1ccc2cc(S(=O)(=O)O)cc(O)c2c1N=Nc1ccc(NC(=O)Nc2ccc(N=Nc3c(N)ccc4cc(S(=O)(=O)O)cc(O)c34)c(S(=O)(=O)O)c2)cc1S(=O)(=O)O | > 100 | > 100 | > 100 | > 100 | > 100 | > 100 | > 100 | > 100 | > 100 | > 100 | > 100 | > 100 | > 100 | > 100 | > 100 | > 100 | > 100 | > 100 | > 100 | > 100
8 | CCOc1ccc(C2=C(Cl)c3cc(OC)c(OC)cc3C2Cl)cc1 (centres undefined) | > 100 | – | > 100 | – | 49.4 | – | – | 45.1 | 49 | – | > 100 | > 100 | – | > 100 | 39.3 | > 100 | > 100 | > 100 | – | –
9 | O=C1ON(Cc2ccccc2)C(c2ccccc2)N1c1ccccc1 (centres undefined) | > 100 | > 100 | > 100 | > 100 | > 100 | > 100 | > 100 | > 100 | > 100 | > 100 | > 100 | > 100 | > 100 | > 100 | > 100 | > 100 | > 100 | > 100 | > 100 | > 100
